The values that follow are results of earlier work, collected in paper PMC3967229 (Marine Drugs, 2014).

Where two headings read alike, the source gives them in different places.

Details of data set [1]: method as in earlier work.
Test in data set [2]: not given
This is another data set of the same source.

Test in data set [3]: not given
The source holds these as a separate data set.

A further data set has as its system MDA-MB-231 cells. Set-up: method as in PMID 22543582. The settings on record: 10 mg/kg/day, together with dexamethasone.
Another data set has as its system HCT116 tumor. The conditions noted are these: i.p.
The conditions of data set [4]: protein-assisted mechanism.
The conditions of data set [5]: mouse in vivo model.
For data set [6] the following is noted: rabbit in vivo model.
The conditions of data set [7]: 5 mg/kg/day.

As to `O=C(CCCCCCC(=O)Nc1ccccc1)NO` [vorinostat, Suberoylanilide hydroxamic acid], the Cellular activity entry was “micromolar”. For the same molecule, in data set [1], the Clearance was 55 mL/min/kg and the Vdss (as a rule, the apparent volume that relates the amount in the body to the concentration in plasma or blood) is listed as 0.6 L/kg. Further, the “Plasma protein binding, bound to human plasma” value in data set [2] is listed as 71.3%.

For `C/C=C1\NC(=O)[C@H]2CSSCC/C=C/[C@H](CC(=O)N[C@H](C(C)C)C(=O)N2)OC(=O)[C@H](C(C)C)NC1=O` [romidepsin], in [3], the “Volume of distribution (Vdss)” value was 22.3 L/kg.

As for largazole thiol, in the data set with HDACs 1, 2 and 3, the “Potency against HDAC isoforms” value was “subnanomolar”.

On to `CCCCCCCC(=O)SCC/C=C/[C@@H]1CC(=O)NCc2nc(cs2)C2=N[C@@](C)(CS2)C(=O)N[C@@H](C(C)C)C(=O)O1` [largazole], for which the Cellular activity entry is reported as “low-nanomolar”. Besides, in the data set with MDA-MB-231 cells, the “Invasiveness of orthotopic MDA-MB-231 tumors” value is recorded as “reducing the invasiveness”. The HCT116 tumor growth result in the data set with HCT116 tumor (colon tumor xenograft mouse model) is reported as “retarding HCT116 tumor growth”. Further, in the data set with HCT116 tumor (up to the highest dose tested (50 mg/kg), mouse), the Acute toxicity entry was “without acute toxicity”. The “Conversion to largazole thiol in mouse serum” value in data set [4] is reported as “rapidly converted”. Besides, the Bone-forming activity entry in data set [5] is on record as “bone-forming activity”. Moreover, in data set [6], the Bone-forming activity entry is “bone-forming activity”. Moreover, the Liver fibrosis result in data set [7] is given as “decreased liver fibrosis”.
